{"source": "patent US11407741B2", "about": "“Compounds and their use as selective inhibitors of caspase-2” (priority 2017, dated 2022)", "test_system": "hippocampal neurons intoxicated with Aβ1-42 oligomers", "test": "Protection against Abeta neurotoxicity in primary hippocampal neurons in microfluidic chambers", "type": "cell-based, mice", "design": "key to Protective effect against Aβ toxicity: +: significant protection against a Aβ-induced cell death, Aβ-induced axonal degeneration, Aβ-induced electrophysiological dysfunction, and/or Aβ-induced synapse loss", "details": "for Protective effect against Aβ toxicity: hippocampal cells pre-incubated 1 h, then Aβ1-42 oligomers", "source_text": "Hippocampus are micro-dissected from E16 embryos of C57B16/J wt mice (Rene Janvier, France) in cold Gey's Balanced Salt Solution (GBSS, Sigma) supplemented with 0.1% glucose (Life technologies).\nDissected structures are digested with papain (20 U/ML in DMEM, Sigma; St. Louis, Mo., USA) and mechanically dissociated in the presence of DNAse. Hippocampal cells are then rinsed and re-suspended in DMEM (Life Technologies, Inc., Gaithersburg, Md., USA) to a final density of 18 million cells/ml in Neurobasal (Life technologies) and Glutamax (0.1% LifeTechnologies) supplemented with B27 (1/50) and penicilline/sptreptomycine 1% (Gibco).\nThis cell suspension is then used to fill the reservoirs of microfluidic chambers, as described (Peyrin et al, 2011 Lab Chips 11(21):3663; Deleglise et al, 2014 Acta Neuropathologica Comm. 2: 145). Microfluidic chips are placed in plastic Petri dishes containing H20-EDTA to prevent evaporation and incubated at 37° C. in a humid 5% CO2 atmosphere. The culture medium is renewed every seven days.\nOligomeric form of Aβ1-42 (Tocris Bioscience, MN, USA), is produced according to Stine W B et al (2003) in J Biol Chem 278, pp 11612-11622 and can be controlled by electron microscopy as in Deleglise B et al. in Acta Neuropathol Commun. 2014; 2: 145).\nBriefly, Aβ1-42 lyophilized peptides are solubilized at 1 mM in 1, 1, 1, 3, 3, 3,-hexafluoro-2-propanol (HFIP, Sigma Aldrich). After 30 min of incubation at RT, HFIP is evaporated for 12 h under chemical hood and peptides are dried for 1 h (with a Speed Vac at 4° C.). Then, 5 mM Aβ peptide stock solutions are obtained by resolubilization at in dimethylsulfoxide (DMSO, Sigma Aldrich). To obtain oligomers, Aβ peptide stock solution is diluted in cold phenol free DMEM-F12 medium (Life Technologies) to a final concentration of 100 μM. The solution is then incubated 24 h at 4° C. Soluble Aβ oligomer fraction is collected from the supernatant after a centrifugation step at 20 000 g (10 min; 4° C.), and stored at −80° C. until use.\nAfter 18 days of culture in micro fluidic chambers, hippocampal cells are pre-incubated for 1 h with compounds of the invention prior diluted in phenol free DMEM-F12 medium or in phenol free DMEM-F12 medium alone as a control solution. Cells are then intoxicated for 3 h to 6 h or 24 h with 10 or 100 nm of Aβ1-42 oligomers (or with phenol free DMEM-F12 medium alone as a control solution). After the intoxication step, cells are fixed in 4% paraformaldehyde (PFA, Sigma; St. Louis, Mo., USA) for 20 min RT, and labelled as explained below to evaluate synapses status, cell death or axonal degeneration.\nBriefly, after the fixation step, cultures cells are washed twice with PBS+Azide 0.1% for 5 min and permeabilized for 10 min with 0.2% Triton X-100 and 0.1% BSA (Bovine Serum Albumin, Sigma) in PBS+Azide 0.1%. Saturation step is then realized by incubating cells during 30 min in PBS+Azide 0.1%+BSA1%. Primary antibodies are then added and the samples incubated at 4° C. overnight in PBS. Afterwards, samples are rinsed twice for 5 min with PBS+Azide 0.1% and further incubated with the corresponding secondary antibody together with phalloidin conjugated to Alexa Fluor 555 for 2 h RT. The chips were then rinsed twice with PBS+Azide 0.1%.\nThe following antibodies are used: rabbit polyclonal anti-MAP-2 (AB5622; 1/400, MILLIPORE), mouse monoclonal Anti-Bassoon SAP7F407; 1:400, Enzo LifeSciences). Species-specific secondary antibodies coupled to Alexa 350, 488 or 500 are used (1/500, Life Technologies, Inc., Gaithersburg, Md., USA). Phalloidin conjugated to Alexa Fluor 555 (1/500, EnzoLifeTechnologies) is used to stain F-actin.\nImages are acquired with an Axio-observer Zl (Zeiss, Germany) fitted with a cooled CCD camera (CoolsnapHQ2, Ropert Scientific). The microscope is controlled with Metamorph and Micro-manager software. Images were analyzed using ImageJ software.", "note": "Where a SMILES comes first, the peptide text is derived from it. [ ]: non-standard residue; d: D form. The star is where a group is joined. Pro(3S-CH2tBu) = CC(C)(C)C[C@H]1CCN[C@@H]1C(=O)O; X4 = CN(Cc1ccccc1)C(=O)/C=C/C(=O)N(CC(=O)O)N*; X3 = O=C(O)CN(N*)C(=O)COc1c(F)cccc1F; Quinaldoyl = O=C(c1ccc2ccccc2n1)*; X1 = c1ncc(CO*)s1", "data": [{"smiles": "CC(C)[C@H](NC(=O)c1ccc2ccccc2n1)C(=O)N[C@@H](CC(=O)O)C(=O)N[C@H](C(=O)N1CC[C@H](CC(C)(C)C)[C@H]1C(=O)N[C@@H](CC(=O)O)C(=O)COc1c(F)cccc1F)C(C)C", "note": "(single isomer, unassigned) [Compound 2 enantiomer a]", "values": [{"measurement": "Synapse protection toward Amyloid beta peptide [1-42] oligomers toxicity (FIG. 1)", "setting": "pretreated at 0.1 μM or 1 μM, Aβ[1-42] oligomers 10 nM, **p<0.01", "value": "Synapse protection"}]}, {"smiles": "CC(C)[C@H](NC(=O)[C@H](CC(=O)O)NC(=O)C(=O)Nc1ccccc1C(C)(C)C)C(=O)N1CC[C@H](CC(C)(C)C)[C@H]1C(=O)NN(CC(=O)O)C(=O)COc1c(F)cccc1F", "note": "[Compound 6, (S)-3-(2-((2-(tert-butyl)phenyl)amino)-2-oxoacetamido)-4-(((S)-1-((2S,3S)-2-(2-(carboxymethyl)-2-(2-(2,6-difluorophenoxy)acetyl)hydrazinecarbonyl)-3-neopentylpyrrolidin-1-yl)-3-methyl-1-oxobutan-2-yl)amino)-4-oxobutanoic acid]", "values": [{"measurement": "Protective effect against Aβ toxicity", "value": "+"}]}, {"smiles": "CC(C)[C@H](NC(=O)c1ccc2ccccc2n1)C(=O)N[C@@H](CC(=O)O)C(=O)N[C@H](C(=O)N1CC[C@H](CC(C)(C)C)[C@H]1C(=O)NN(CC(=O)O)C(=O)COc1c(F)cccc1F)C(C)C", "note": "[Compound 4, (S)-4-(((S)-1-((2S,3S)-2-(2-(carboxymethyl)-2-(2-(2,6-difluorophenoxy)acetyl)hydrazinecarbonyl)-3-neopentylpyrrolidin-1-yl)-3-methyl-1-oxobutan-2-yl)amino)-3-((S)-3-methyl-2-(quinoline-2-carboxamido)butanamido)-4-oxobutanoic acid] (Quinaldoyl-VDV[Pro(3S-CH2tBu)]-X3)", "values": [{"measurement": "Protective effect against Aβ toxicity", "value": "+"}]}, {"smiles": "CC(C)[C@H](NC(=O)c1ccc2ccccc2n1)C(=O)N[C@@H](CC(=O)O)C(=O)N[C@H](C(=O)N1CC[C@H](CC(C)(C)C)[C@H]1C(=O)N[C@@H](CC(=O)O)C(=O)OCc1cncs1)C(C)C", "note": "[Compound 3, (S)-4-(((S)-1-((2S,3S)-2-(((S)-3-carboxy-1-oxo-1-(thiazol-5 - ylmethoxy)propan-2-yl)carbamoyl)-3-neopenthylpyrrolidin-1-yl)-3-methyl-1-oxobutan-2-yl)amino)-3-((S)-3-methyl-2-(quinoline-2-carboxamido)butanamido)-4-oxobutanoic acid] (Quinaldoyl-VDV[Pro(3S-CH2tBu)]D-X1)", "values": [{"measurement": "Protective effect against Aβ toxicity", "value": "+"}]}, {"smiles": "CC(C)[C@H](NC(=O)c1ccc2ccccc2n1)C(=O)N[C@@H](CC(=O)O)C(=O)N[C@H](C(=O)N1CC[C@H](CC(C)(C)C)[C@H]1C(=O)NN(CC(=O)O)C(=O)/C=C/C(=O)N(C)Cc1ccccc1)C(C)C", "note": "[Compound 5, (S)-4-(((S)-1-((2S,3S)-2-(2-((E)-4-(benzyl(methyl)amino)-4-oxobut-2-enoyl)-2-(carboxymethyl)hydrazinecarbonyl)-3-neopentylpyrrolidin-1-yl)-3-methyl-1-oxobutan-2-yl)amino)-3-((S)-3-methyl-2-(quinoline-2-carboxamido)butanamido)-4-oxobutanoic acid] (Quinaldoyl-VDV[Pro(3S-CH2tBu)]-X4)", "values": [{"measurement": "Protective effect against Aβ toxicity", "value": "+"}]}]}
